Results published in PubChem BioAssay AID330 (DTP/NCI, 2004).
Several values for one entry are separate records, joined by “and”; a condition that tells them apart may be missing. Equal entries are not always repeated. Toxic doses and inconclusive results are not listed.

System: P388 leukemia ip, CD2F1 mice, survival T/C
Test: NCI In Vivo Anticancer Drug Screen. Data for tumor model P388 Leukemia (intraperitoneal) in CD2F1 (CDF1) mice
Conditions: endpoint: median survival time, higher = longer survival
Procedure, shortened: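 Mice carrying the transplanted tumor received test compound or vehicle. Survival was recorded in each group, and the value is the treated-group measurement divided by that of the vehicle-treated control group.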

[1] = dose: 50.0 mg/kg/injection, schedule: Q01DX005 (ip), vehicle: saline with Tween-80
[2] = dose: 100.0 mg/kg/injection, schedule: Q01DX005 (ip), vehicle: saline with Tween-80
[3] = dose: 200.0 mg/kg/injection, schedule: Q01DX005 (ip), vehicle: saline with Tween-80
[4] = dose: 100.0 mg/kg/injection, schedule: Q01DX009 (ip), vehicle: saline with Tween-80
[5] = dose: 100.0 mg/kg/injection, schedule: Q04DX003 (ip), vehicle: saline with Tween-80
[6] = dose: 200.0 mg/kg/injection, schedule: Q01DX009 (ip), vehicle: saline with Tween-80
[7] = dose: 200.0 mg/kg/injection, schedule: Q04DX003 (ip), vehicle: saline with Tween-80
[8] = dose: 25.0 mg/kg/injection, schedule: Q01DX009 (ip), vehicle: distilled water + Tween-80
[9] = dose: 50.0 mg/kg/injection, schedule: Q01DX009 (ip), vehicle: distilled water + Tween-80
[10] = dose: 100.0 mg/kg/injection, schedule: Q01DX009 (ip), vehicle: distilled water + Tween-80
[11] = dose: 60.0 mg/kg/injection, schedule: Q01DX005 (ip), vehicle: Klucel (hydroxypropylcellulose) (HPC)
[12] = dose: 120.0 mg/kg/injection, schedule: Q01DX005 (ip), vehicle: Klucel (hydroxypropylcellulose) (HPC)
[13] = dose: 50.0 mg/kg/injection, schedule: Q01DX005 (ip), vehicle: Klucel (hydroxypropylcellulose) (HPC)
[14] = dose: 100.0 mg/kg/injection, schedule: Q01DX005 (ip), vehicle: Klucel (hydroxypropylcellulose) (HPC)
[15] = dose: 200.0 mg/kg/injection, schedule: Q01DX005 (ip), vehicle: Klucel (hydroxypropylcellulose) (HPC)
[16] = dose: 50.0 mg/kg/injection, schedule: Q04DX003 (ip), vehicle: saline with Tween-80
[17] = dose: 60.0 mg/kg/injection, schedule: Q01DX005 (ip), vehicle: saline with Tween-80
[18] = dose: 120.0 mg/kg/injection, schedule: Q01DX005 (ip), vehicle: saline with Tween-80
[19] = dose: 240.0 mg/kg/injection, schedule: Q01DX005 (ip), vehicle: saline with Tween-80

Cc1c2cc[n+](CCN3CCCCC3)cc2c(C)c2c1[nH]c1ccc(O)cc12
T/C (dose: 1.56 mg/kg/injection, schedule: Q04DX003 (ip), vehicle: suspension in saline): 152 % of control | T/C (dose: 3.12 mg/kg/injection, schedule: Q04DX003 (ip), vehicle: suspension in saline): 152 % of control | T/C (dose: 6.25 mg/kg/injection, schedule: Q04DX003 (ip), vehicle: saline): 178 % of control and 201 % of control | T/C (dose: 12.5 mg/kg/injection, schedule: Q04DX003 (ip), vehicle: saline): 178 % of control | T/C (dose: 12.5 mg/kg/injection, schedule: Q04DX003 (ip), vehicle: suspension in saline): 164 % of control | T/C (dose: 25.0 mg/kg/injection, schedule: Q04DX003 (ip), vehicle: saline): 190 % of control and 194 % of control | T/C (dose: 25.0 mg/kg/injection, schedule: Q04DX003 (ip), vehicle: suspension in saline): 164 % of control | T/C (dose: 50.0 mg/kg/injection, schedule: Q04DX003 (ip), vehicle: saline): 255 % of control | T/C (dose: 50.0 mg/kg/injection, schedule: Q04DX003 (ip), vehicle: suspension in saline): 152 % of control | T/C (dose: 100.0 mg/kg/injection, schedule: Q04DX003 (ip), vehicle: saline): 216 % of control | T/C (dose: 100.0 mg/kg/injection, schedule: Q04DX003 (ip), vehicle: suspension in saline): 169 % of control | T/C (dose: 200.0 mg/kg/injection, schedule: Q04DX003 (ip), vehicle: saline): 104 % of control | T/C (dose: 200.0 mg/kg/injection, schedule: Q04DX003 (ip), vehicle: suspension in saline): 98 % of control

CCc1nc(N)nc(N)c1-c1ccc(N2CCN(C)CC2)cc1
T/C [1]: 103 % of control | T/C [2]: 100 % of control | T/C [3]: 99 % of control

CC1(O)CCC2C3CCC4CC(=O)CCC4(C)C3(F)C(O)CC21C (configuration not stated)
T/C [4]: 100 % of control | T/C [5]: 100 % of control | T/C [6]: 100 % of control | T/C [7]: 100 % of control | T/C (dose: 400.0 mg/kg/injection, schedule: Q01DX009 (ip), vehicle: saline with Tween-80): 95 % of control | T/C (dose: 400.0 mg/kg/injection, schedule: Q04DX003 (ip), vehicle: saline with Tween-80): 100 % of control

COC(=O)C1=C(C(=O)OC)CCC1
T/C [8]: 97 % of control | T/C [9]: 91 % of control | T/C [10]: 100 % of control | T/C (dose: 200.0 mg/kg/injection, schedule: Q01DX009 (ip), vehicle: distilled water + Tween-80): 105 % of control | T/C (dose: 400.0 mg/kg/injection, schedule: Q01DX009 (ip), vehicle: distilled water + Tween-80): 100 % of control

c1ccc2c(c1)ccc1c[n+]3ccccc3cc12
T/C (dose: 0.25 mg/kg/injection, schedule: Q01DX009 (ip), vehicle: saline): 100 % of control | T/C (dose: 0.5 mg/kg/injection, schedule: Q01DX009 (ip), vehicle: saline): 104 % of control | T/C (dose: 1.0 mg/kg/injection, schedule: Q01DX009 (ip), vehicle: saline): 100 % of control | T/C (dose: 1.25 mg/kg/injection, schedule: Q04DX003 (ip), vehicle: other): 100 % of control | T/C (dose: 2.5 mg/kg/injection, schedule: Q04DX003 (ip), vehicle: other): 107 % of control

COc1ccc(C(c2cc3c(cc2O)OCO3)N2CCN(C(c3cc4c(cc3O)OCO4)c3ccc(OC)cc3OC)CC2)c(OC)c1 (configuration not stated)
T/C [11]: 88 % of control | T/C [12]: 86 % of control

O=C1CCSC(=S)N1c1ccc(Br)c(Cl)c1
T/C (dose: 50.0 mg/kg/injection, schedule: Q01DX009 (ip), vehicle: suspension in saline): 116 % of control | T/C (dose: 100.0 mg/kg/injection, schedule: Q01DX009 (ip), vehicle: suspension in saline): 116 % of control | T/C (dose: 200.0 mg/kg/injection, schedule: Q01DX009 (ip), vehicle: suspension in saline): 106 % of control

O=c1ccn(C2CC(O)C(CO)O2)c(=O)[nH]1 (configuration not stated)
T/C [13]: 100 % of control | T/C [14]: 101 % of control | T/C [15]: 106 % of control

CCOC(=O)CCCCCCCCNC(=O)N1c2c(nc(N)[nH]c2=O)NCC1CNc1ccc(C(=O)NC(CCC(=O)O)C(=O)O)cc1 (configuration not stated)
T/C (dose: 50.0 mg/kg/injection, schedule: Q04DX003 (ip), vehicle: Klucel (hydroxypropylcellulose) (HPC)): 111 % of control | T/C (dose: 100.0 mg/kg/injection, schedule: Q04DX003 (ip), vehicle: Klucel (hydroxypropylcellulose) (HPC)): 106 % of control | T/C (dose: 200.0 mg/kg/injection, schedule: Q04DX003 (ip), vehicle: Klucel (hydroxypropylcellulose) (HPC)): 108 % of control

CC1(C)CC(=O)C(C(c2cccc([N+](=O)[O-])c2)C2C(=O)CC(C)(C)CC2=O)C(=O)C1
T/C [13]: 96 % of control | T/C [14]: 98 % of control | T/C [15]: 102 % of control

CC(CCN1CCOCC1)Nc1ccnc2cc(Cl)ccc12 (configuration not stated)
T/C (dose: 12.5 mg/kg/injection, schedule: Q01DX005 (ip), vehicle: saline): 98 % of control | T/C (dose: 25.0 mg/kg/injection, schedule: Q01DX005 (ip), vehicle: saline): 102 % of control | T/C (dose: 50.0 mg/kg/injection, schedule: Q01DX005 (ip), vehicle: saline): 107 % of control and 95 % of control

C=C(C)[C@@H](/C=C/[C@@H](C)[C@H]1CC[C@H]2C3=CC[C@H]4C[C@@H](O)CC[C@]4(C)[C@H]3CC[C@]12C)CC
T/C (dose: 50.0 mg/kg/injection, schedule: Q01DX009 (ip), vehicle: saline with Tween-80): 90 % of control | T/C [16]: 95 % of control | T/C [4]: 90 % of control | T/C [5]: 90 % of control | T/C [6]: 100 % of control | T/C [7]: 95 % of control

COc1cccc(C(=O)CCN(C)C)c1
T/C (dose: 50.0 mg/kg/injection, schedule: Q01DX009 (ip), vehicle: saline): 98 % of control and 106 % of control | T/C (dose: 100.0 mg/kg/injection, schedule: Q01DX009 (ip), vehicle: saline): 99 % of control and 105 % of control

O=C1C(c2ccccc2)=C(c2ccccc2)/C1=C\c1ccc(Cl)cc1Cl
T/C (dose: 50.0 mg/kg/injection, schedule: Q01DX009 (ip), vehicle: Klucel (hydroxypropylcellulose) (HPC)): 87 % of control | T/C (dose: 100.0 mg/kg/injection, schedule: Q01DX009 (ip), vehicle: Klucel (hydroxypropylcellulose) (HPC)): 87 % of control

c1ccc(N=C2N=c3ccccc3=C2c2c(Nc3ccccc3)[nH]c3ccccc23)cc1
T/C [1]: 89 % of control | T/C [2]: 90 % of control | T/C [3]: 92 % of control

Nc1cccc(NC=O)c1
T/C (dose: 12.5 mg/kg/injection, schedule: Q04DX003 (ip), vehicle: saline with Tween-80): 100 % of control | T/C (dose: 25.0 mg/kg/injection, schedule: Q04DX003 (ip), vehicle: saline with Tween-80): 110 % of control | T/C [16]: 100 % of control

O=c1c2c(-c3cc(-c4ccccc4)nc4[nH]n(-c5ccccc5)c(=O)c34)cc(-c3ccccc3)nc2[nH]n1-c1ccccc1
T/C [13]: 96 % of control | T/C [14]: 107 % of control | T/C [15]: 96 % of control

[N-]=[N+]=N/C=C/C(=O)OCCBr
T/C (dose: 15.0 mg/kg/injection, schedule: Q01DX005 (ip), vehicle: saline): 97 % of control | T/C (dose: 30.0 mg/kg/injection, schedule: Q01DX005 (ip), vehicle: saline): 103 % of control | T/C (dose: 60.0 mg/kg/injection, schedule: Q01DX005 (ip), vehicle: saline): 102 % of control and 97 % of control

CCOC(=O)c1ccc(NC(=O)Nc2ccccc2F)cc1
T/C [17]: 95 % of control | T/C [18]: 95 % of control | T/C [19]: 104 % of control

CCN=NNc1ccc(C(C)=O)cc1
T/C (dose: 12.5 mg/kg/injection, schedule: Q01DX009 (ip), vehicle: distilled water + Tween-80): 95 % of control | T/C [8]: 109 % of control and 90 % of control | T/C [9]: 109 % of control and 92 % of control | T/C [10]: 104 % of control

O=C(O)[C@H](Cc1ccccc1)N1C(=O)N[C@@H](Cc2ccccc2)C1=O
T/C [17]: 96 % of control | T/C [18]: 104 % of control | T/C [19]: 99 % of control

CCOC(=O)NC1CC2c3ccccc3C1c1ccccc12 (configuration not stated)
T/C [17]: 101 % of control | T/C [18]: 101 % of control | T/C [19]: 107 % of control

O=C1CN(C2CCCCC2Br)C(=O)CN1C1CCCCC1Br (configuration not stated)
T/C [11]: 97 % of control | T/C [12]: 94 % of control | T/C (dose: 240.0 mg/kg/injection, schedule: Q01DX005 (ip), vehicle: Klucel (hydroxypropylcellulose) (HPC)): 96 % of control
